In PubChem BioAssay AID330 (DTP/NCI, 2004):
“And” between values parts separate entries of the source, which are not always exact repeats. Equal entries are not always repeated. Toxic doses and inconclusive results are not listed.

Tested on: P388 leukemia ip, CD2F1 mice, survival T/C
Test: NCI In Vivo Anticancer Drug Screen. Data for tumor model P388 Leukemia (intraperitoneal) in CD2F1 (CDF1) mice
Conditions: endpoint: median survival time, higher = longer survival
Outline: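 Mice carrying the transplanted tumor received test compound or vehicle. Survival was recorded in each group, and the value is the treated-group measurement divided by that of the vehicle-treated control group.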

[1] = dose: 12.5 mg/kg/injection, schedule: Q01DX009 (ip), vehicle: water
[2] = dose: 25.0 mg/kg/injection, schedule: Q01DX009 (ip), vehicle: water
[3] = dose: 50.0 mg/kg/injection, schedule: Q01DX009 (ip), vehicle: water
[4] = dose: 100.0 mg/kg/injection, schedule: Q01DX009 (ip), vehicle: water
[5] = dose: 50.0 mg/kg/injection, schedule: Q01DX009 (ip), vehicle: Klucel (hydroxypropylcellulose) (HPC)
[6] = dose: 100.0 mg/kg/injection, schedule: Q01DX009 (ip), vehicle: Klucel (hydroxypropylcellulose) (HPC)
[7] = dose: 200.0 mg/kg/injection, schedule: Q01DX009 (ip), vehicle: Klucel (hydroxypropylcellulose) (HPC)
[8] = dose: 50.0 mg/kg/injection, schedule: Q01DX009 (ip), vehicle: saline with Tween-80
[9] = dose: 100.0 mg/kg/injection, schedule: Q01DX009 (ip), vehicle: saline with Tween-80
[10] = dose: 200.0 mg/kg/injection, schedule: Q01DX009 (ip), vehicle: saline with Tween-80
[11] = dose: 400.0 mg/kg/injection, schedule: Q04DX003 (ip), vehicle: saline with Tween-80
[12] = dose: 50.0 mg/kg/injection, schedule: Q01DX009 (ip), vehicle: saline
[13] = dose: 100.0 mg/kg/injection, schedule: Q01DX009 (ip), vehicle: saline
[14] = dose: 200.0 mg/kg/injection, schedule: Q01DX009 (ip), vehicle: saline
[15] = dose: 60.0 mg/kg/injection, schedule: Q01DX005 (ip), vehicle: saline with Tween-80
[16] = dose: 120.0 mg/kg/injection, schedule: Q01DX005 (ip), vehicle: saline with Tween-80
[17] = dose: 240.0 mg/kg/injection, schedule: Q01DX005 (ip), vehicle: saline with Tween-80
[18] = dose: 50.0 mg/kg/injection, schedule: Q01DX005 (ip), vehicle: saline with Tween-80

COc1ccc(CCNc2ccc(OC)c(OC)c2)cc1OC was tested, and the T/C [1] was 91 % of control, the T/C [2] was 98 % of control and the T/C [3] was 100 % of control. The T/C [4] was 95 % of control and the T/C (dose: 200.0 mg/kg/injection, schedule: Q01DX009 (ip), vehicle: water) was 90 % of control.
CS(=O)(=O)/C=C/c1cccc(O)c1 was tested, and the T/C [5] was 97 % of control, the T/C [6] was 96 % of control and the T/C [7] was 89 % of control.
For ClC1=CC=c2ccc3c(c2[N-]1)[N-]C(Cl)=CC=3.ClC1=CC=c2ccc3c(c2[N-]1)[N-]C(Cl)=CC=3.O=[N+]([O-])O.[Cu+], the T/C (dose: 6.25 mg/kg/injection, schedule: Q04DX002 (ip), vehicle: suspension in saline) was 101 % of control, the T/C (dose: 12.5 mg/kg/injection, schedule: Q04DX002 (ip), vehicle: suspension in saline) was 93 % of control and the T/C (dose: 25.0 mg/kg/injection, schedule: Q04DX002 (ip), vehicle: suspension in saline) was 98 % of control.
For CC1CC=[N+]([O-])C1(C)C (stereo not given), the T/C (dose: 12.5 mg/kg/injection, schedule: Q01DX009 (ip), vehicle: saline with Tween-80) was 95 % of control, the T/C (dose: 25.0 mg/kg/injection, schedule: Q01DX009 (ip), vehicle: saline with Tween-80) was 102 % of control and the T/C [8] was 102 % of control and 86 % of control.
In the case of COc1ccc(NC(=O)C(Cl)Cl)ccc1=O, the T/C [8] is reported as 91 % of control.
Nc1cc(Cl)c(O)c(Cl)c1 was tested, and the T/C (dose: 25.0 mg/kg/injection, schedule: Q01DX001 (ip), vehicle: saline with Tween-80) was 100 % of control, the T/C (dose: 50.0 mg/kg/injection, schedule: Q01DX001 (ip), vehicle: saline with Tween-80) was 95 % of control and the T/C (dose: 100.0 mg/kg/injection, schedule: Q01DX001 (ip), vehicle: saline with Tween-80) was 90 % of control.
With O=C(N/N=C\c1ccc(Cl)cc1)c1ccccc1 the T/C [8] was 95 % of control, the T/C [9] was 90 % of control and the T/C [10] was 104 % of control.
CSCC1(C)OC(c2ccccc2)=Nc2ccccc21 (stereo not given) was tested, and the T/C (dose: 100.0 mg/kg/injection, schedule: Q04DX002 (ip), vehicle: saline with Tween-80) was 97 % of control, the T/C (dose: 200.0 mg/kg/injection, schedule: Q04DX002 (ip), vehicle: saline with Tween-80) was 98 % of control and the T/C (dose: 400.0 mg/kg/injection, schedule: Q04DX002 (ip), vehicle: saline with Tween-80) was 106 % of control.
In the case of CSC(=S)/C(=C/Nc1ncccn1)c1ccccc1, the T/C (dose: 30.0 mg/kg/injection, schedule: Q01DX005 (ip), vehicle: Klucel (hydroxypropylcellulose) (HPC)) is reported as 87 % of control and the T/C (dose: 120.0 mg/kg/injection, schedule: Q01DX005 (ip), vehicle: Klucel (hydroxypropylcellulose) (HPC)) is reported as 89 % of control.
In the case of CCOC(=O)c1ccc(NCC#N)cc1, the T/C (dose: 100.0 mg/kg/injection, schedule: Q04DX003 (ip), vehicle: saline with Tween-80) is reported as 100 % of control, the T/C (dose: 200.0 mg/kg/injection, schedule: Q04DX003 (ip), vehicle: saline with Tween-80) is reported as 100 % of control and the T/C [11] is reported as 100 % of control.
CCOC([O-])=N/C(C)=N/[n+]1ccccc1C was tested, and the T/C [12] was 107 % of control, the T/C [13] was 104 % of control and the T/C [14] was 107 % of control.
CCCOC1NC(=O)Oc2ccccc21 (stereo not given) was tested, and the T/C [15] was 101 % of control and 104 % of control and 106 % of control, the T/C [16] was 104 % of control and 111 % of control and 117 % of control and the T/C [17] was 114 % of control and 117 % of control.
For COC1/C=C/OC2(C)Oc3c(C)c(O)c4c(O)c(c(/C=N/N5C(C)CN(Cc6ccc(O)cc6)CC5C)c(O)c4c3C2=O)NC(=O)C(C)=C/C=C/C(C)C(O)C(C)C(O)C(C)C(OC(C)=O)C1C (stereo not given), the T/C [8] was 95 % of control, the T/C [9] was 99 % of control and the T/C [10] was 96 % of control.
With COC1=C(C)C2CC(=O)OC3C(O)C4C(C)CC(O)C(=O)C4(C)C(C1=O)C23C (stereo not given) the T/C (dose: 3.0 mg/kg/injection, schedule: Q01DX009 (ip), vehicle: alcohol) was 105 % of control, the T/C (dose: 6.0 mg/kg/injection, schedule: Q01DX009 (ip), vehicle: alcohol) was 104 % of control and the T/C (dose: 12.0 mg/kg/injection, schedule: Q01DX009 (ip), vehicle: alcohol) was 107 % of control.
For CC1(C)C(=O)C(C)(C)C1O, the T/C [12] was 98 % of control, the T/C [13] was 95 % of control and the T/C [14] was 98 % of control.
In the case of CCOC(=O)C1C2CCCCC21OC (stereo not given), the T/C [15] is reported as 106 % of control, the T/C [16] is reported as 107 % of control and the T/C [17] is reported as 110 % of control.
O=C(c1ccccc1)C1(c2ccccc2)CC1 was tested, and the T/C [8] was 104 % of control, the T/C [9] was 104 % of control and the T/C [10] was 104 % of control. The T/C (dose: 400.0 mg/kg/injection, schedule: Q01DX009 (ip), vehicle: saline with Tween-80) was 99 % of control.
In the case of O=c1cc2n(c(=O)n1Cc1ccccc1)CCC2, the T/C (dose: 12.5 mg/kg/injection, schedule: Q01DX005 (ip), vehicle: saline with Tween-80) is reported as 97 % of control, the T/C (dose: 25.0 mg/kg/injection, schedule: Q01DX005 (ip), vehicle: saline with Tween-80) is reported as 99 % of control and the T/C [18] is reported as 101 % of control.
With c1ccc(C2(c3ccccc3)CCc3ccccc3O2)cc1 the T/C (dose: 100.0 mg/kg/injection, schedule: Q04DX003 (ip), vehicle: Klucel (hydroxypropylcellulose) (HPC)) was 105 % of control, the T/C (dose: 200.0 mg/kg/injection, schedule: Q04DX003 (ip), vehicle: Klucel (hydroxypropylcellulose) (HPC)) was 99 % of control and the T/C (dose: 400.0 mg/kg/injection, schedule: Q04DX003 (ip), vehicle: Klucel (hydroxypropylcellulose) (HPC)) was 99 % of control.
In the case of O=S(=O)(NC(=S)S)c1ccccc1, the T/C [1] is reported as 102 % of control and 88 % of control and 94 % of control, the T/C [2] is reported as 104 % of control and 107 % of control and 94 % of control and the T/C [3] is reported as 102 % of control and 106 % of control and 116 % of control. The T/C [4] was 112 % of control (2×) and 123 % of control.
COc1ccc(Cc2nnc(SC)n2-c2ccc(F)cc2)cc1OC was tested, and the T/C [15] was 102 % of control, the T/C [16] was 95 % of control and the T/C [17] was 102 % of control.
With COc1cc(/C=C\Cc2cc3c(cc2OC(C)=O)OCO3)cc(OC)c1OC the T/C [15] was 91 % of control, the T/C [16] was 91 % of control and the T/C [17] was 90 % of control.
CC1(c2ccccc2)CCCC(C#N)C1=N (stereo not given) was tested, and the T/C (dose: 12.5 mg/kg/injection, schedule: Q01DX001 (ip), vehicle: Klucel (hydroxypropylcellulose) (HPC)) was 106 % of control, the T/C (dose: 25.0 mg/kg/injection, schedule: Q01DX001 (ip), vehicle: Klucel (hydroxypropylcellulose) (HPC)) was 100 % of control and the T/C (dose: 50.0 mg/kg/injection, schedule: Q01DX001 (ip), vehicle: Klucel (hydroxypropylcellulose) (HPC)) was 103 % of control.
With O=C(c1ccccc1)c1cc(Cl)ccc1NCC(O)COc1cccc2ccccc12 (stereo not given) the T/C [15] was 100 % of control, the T/C [16] was 91 % of control and the T/C [17] was 88 % of control.
For C=CCCc1cc(OC)ccc1C(=O)C(C)C, the T/C (dose: 25.0 mg/kg/injection, schedule: Q01DX009 (ip), vehicle: Klucel (hydroxypropylcellulose) (HPC)) was 100 % of control, the T/C [18] was 99 % of control and the T/C [5] was 104 % of control. The T/C (dose: 100.0 mg/kg/injection, schedule: Q01DX005 (ip), vehicle: saline with Tween-80) was 107 % of control, the T/C [6] was 102 % of control and the T/C (dose: 200.0 mg/kg/injection, schedule: Q01DX005 (ip), vehicle: saline with Tween-80) was 100 % of control. For the same compound, the T/C [7] was 104 % of control.
O=NN(C(=O)NCCN1CCOCC1)C1CCCCC1 was tested, and the T/C (dose: 25.0 mg/kg/injection, schedule: Q01DX001 (ip), vehicle: water) was 115 % of control, the T/C (dose: 50.0 mg/kg/injection, schedule: Q01DX001 (ip), vehicle: water) was 100 % of control and the T/C (dose: 100.0 mg/kg/injection, schedule: Q01DX001 (ip), vehicle: water) was 103 % of control. The T/C (dose: 200.0 mg/kg/injection, schedule: Q01DX001 (ip), vehicle: water) was 111 % of control and the T/C (dose: 400.0 mg/kg/injection, schedule: Q01DX001 (ip), vehicle: water) was 117 % of control.
NC(CSC(c1ccccc1)(c1ccccc1)c1ccccc1)C(=O)OC(c1ccccc1)c1ccccc1 (stereo not given) was tested, and the T/C [11] was 150 % of control and 154 % of control and the T/C (dose: 600.0 mg/kg/injection, schedule: Q04DX003 (ip), vehicle: saline with Tween-80) was 109 % of control.
For CCN(CC)C(=O)c1cc(OC)c(C(=O)N(CC)CC)cc1OC, the T/C [15] was 100 % of control, the T/C [16] was 108 % of control and the T/C [17] was 101 % of control.
